ChEMBL document CHEMBL2218064, “Structure-activity relationship data for chemical series of antagonists of the P2X7 receptor (Supplementary Bioactivity Data for publication CHEMBL1157114)”

Each compound was assayed against T1, P2X purinoceptor 7 (Homo sapiens, UniProt Q99572) (assay: SUPPLEMENTARY: Inhibition of human P2X7 receptor assessed as inhibition of ethidium bromide accumulation. Same assay as CHEMBL1103860).
T1 sequence (Q99572 whole entry): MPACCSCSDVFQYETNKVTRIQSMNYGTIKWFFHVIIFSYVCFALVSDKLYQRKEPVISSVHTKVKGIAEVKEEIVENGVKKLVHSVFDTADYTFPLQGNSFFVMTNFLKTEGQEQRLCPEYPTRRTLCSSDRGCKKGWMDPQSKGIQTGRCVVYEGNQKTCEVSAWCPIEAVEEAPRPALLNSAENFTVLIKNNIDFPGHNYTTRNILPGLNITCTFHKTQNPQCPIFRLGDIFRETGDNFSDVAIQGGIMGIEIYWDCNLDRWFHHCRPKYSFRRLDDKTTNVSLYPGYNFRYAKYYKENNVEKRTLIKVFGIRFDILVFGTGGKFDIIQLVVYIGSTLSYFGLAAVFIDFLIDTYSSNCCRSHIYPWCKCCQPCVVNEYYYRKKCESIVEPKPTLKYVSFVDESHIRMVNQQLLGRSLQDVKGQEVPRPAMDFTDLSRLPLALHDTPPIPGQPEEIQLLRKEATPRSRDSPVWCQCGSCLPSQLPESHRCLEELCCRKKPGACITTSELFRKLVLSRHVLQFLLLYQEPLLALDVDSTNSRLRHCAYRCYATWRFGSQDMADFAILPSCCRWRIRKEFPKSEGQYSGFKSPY

| Structure (SMILES) | IC50 |
| --- | --- |
| CC(C)(C)c1nnc2n1CCN(C(=O)c1cccc(C(F)(F)F)c1Cl)C2 | 200 nM |
| O=C(c1ccc(F)cc1Cl)N1CCn2c(nnc2-c2ccccc2)C1 | 12.6 nM |
| Cn1ccc(-c2nnc3n2CCN(C(=O)c2cccc(C(F)(F)F)c2Cl)C3)n1 | 5.01 nM |
| Cn1cccc1-c1nnc2n1CCN(C(=O)c1cccc(C(F)(F)F)c1Cl)C2 | 6.31 nM |
| Cc1cc(-c2nnc3n2CCN(C(=O)c2cccc(C(F)(F)F)c2Cl)C3)no1 | 12.6 nM |
| O=C(c1ccc(F)cc1Cl)N1CCn2c(nnc2-c2cnccn2)C1 | 5.01 nM |
| O=C(c1cccc(C(F)(F)F)c1Cl)N1CCn2c(nnc2-c2ccc[nH]2)C1 | 1.58 nM |
| O=C(c1cccc(C(F)(F)F)c1Cl)N1CCn2c(nnc2-c2cscn2)C1 | 1.58 nM |
| O=C(c1cccc(C(F)(F)F)c1Cl)N1CCn2c(nnc2-c2cccnn2)C1 | 12.6 nM |
| O=C(c1cccc(C(F)(F)F)c1Cl)N1CCn2c(nnc2-c2ccc(F)cn2)C1 | 2.51 nM |
| Cn1cccc1-c1nnc2n1CCN(C(=O)c1cccc(Cl)c1Cl)C2 | 12.6 nM |
| Cc1cc(-c2nnc3n2CCN(C(=O)c2cccc(Cl)c2Cl)C3)no1 | 25.1 nM |
| COc1ccnc(N2C[C@@H](C(=O)NCc3ccc(Cl)cc3Cl)N(C)C2=O)n1 | 20 nM |
| Cc1cc(Cl)cc(Cl)c1CNC(=O)[C@@H]1CN(C)C(=O)N1C | 0.794 nM |
| CN1C(=O)N(c2ncc(Cl)cn2)C[C@H]1C(=O)NCc1ccc(Cl)cc1Cl | 6.31 nM |
| N#CCCN1CCN(C(=O)c2cccc(C(F)(F)F)c2Cl)CC1=O | 316 nM |
| CC(C#N)N1CCN(C(=O)c2cccc(C(F)(F)F)c2Cl)CC1=O (configuration not stated) | 251 nM |
| Cc1ccc(N2C[C@@H](C(=O)NCc3ccc(Cl)cc3Cl)N(C)C2=O)cn1 | 25.1 nM |
| Cc1ccc(N2C[C@@H](C(=O)NCc3ccc(F)c(F)c3Cl)N(C)C2=O)cn1 | 31.6 nM |
| CN1C[C@@H](C(=O)NCc2ccc(Cl)cc2Cl)N(CC(F)F)C1=O | 15.8 nM |
| Cc1c(CNC(=O)[C@@H]2CN(C)C(=O)N2C)cccc1C(F)(F)F | 1.26 nM |
| Cc1cc(Cl)ccc1CNC(=O)[C@@H]1CN(C)C(=O)N1C | 7.94 nM |
| CN1C(=O)N(c2ccnc(F)c2)C[C@H]1C(=O)NCc1ccc(Cl)cc1Cl | 31.6 nM |
| CN1C[C@@H](C(=O)NCc2ccc(C#N)cc2Cl)N(C)C1=O | 31.6 nM |
| CN1C(=O)N(c2ccnc(F)c2)C[C@H]1C(=O)NCc1ccc(F)c(F)c1Cl | 12.6 nM |

| Structure (SMILES) | IC50 |
| --- | --- |
| CN1C(=O)N(c2ccnc(F)c2)C[C@H]1C(=O)NCc1cccc(C(F)(F)F)c1Cl | 63.1 nM |
| CC(C)c1ccnc(N2C[C@@H](C(=O)NCc3ccc(Cl)cc3Cl)N(C)C2=O)n1 | 158 nM |
| CN1C(=O)N(c2ncccc2F)C[C@H]1C(=O)NCc1ccc(Cl)cc1Cl | 2 nM |
| CN1C(=O)N(CC(F)F)C[C@H]1C(=O)NCc1ccc(Cl)cc1Cl | 2.51 nM |
| CN1C(=O)N(c2ccnn2C)C[C@H]1C(=O)NCc1ccc(Cl)cc1Cl | 10 nM |
| CN1C(=O)N(c2cccnc2C#N)C[C@H]1C(=O)NCc1ccc(Cl)cc1Cl | 31.6 nM |
| Cc1ccc(N2C[C@@H](C(=O)NCc3ccc(Cl)cc3Cl)N(C)C2=O)nn1 | 398 nM |
| CN1C(=O)N(CC(F)(F)F)C[C@H]1C(=O)NCc1ccc(Cl)cc1Cl | 2 nM |
| CN1C(=O)N(CCF)C[C@H]1C(=O)NCc1ccc(Cl)cc1Cl | 3.16 nM |
| CCN1C[C@@H](C(=O)NCc2ccc(Cl)cc2Cl)N(C)C1=O | 3.16 nM |
| O=C(c1cccc(C(F)(F)F)c1Cl)N1CCn2c(-c3ccccc3)cnc2C1 | 6.31 nM |
| CN1C(=O)NC[C@H]1C(=O)NCc1c(F)cc(Cl)cc1Cl | 15.8 nM |
| CN1C[C@@H](C(=O)NCc2c(F)cc(Cl)cc2Cl)N(C)C1=O | 5.01 nM |
| CN1C[C@@H](C(=O)NCc2c(Cl)cc(Cl)cc2Cl)N(C)C1=O | 0.794 nM |
| CN1C(=O)NC[C@H]1C(=O)NCc1c(Cl)cc(Cl)cc1Cl | 1.58 nM |
| CN1C(=O)N(CC2CC2)CC1C(=O)NCc1ccc(Cl)cc1Cl (configuration not stated) | 3.16 nM |
| CN1C(=O)N(CC2CCC2)CC1C(=O)NCc1ccc(Cl)cc1Cl (configuration not stated) | 5.01 nM |
| CC(C)N1CC(C(=O)NCc2ccc(Cl)cc2Cl)N(C)C1=O (configuration not stated) | 5.01 nM |
| O=C(c1ccc(Cl)cc1Cl)N1CCn2c(-c3ccccc3)cnc2C1 | 20 nM |
| CN1C(=O)N(C2CCCC2)CC1C(=O)NCc1ccc(Cl)cc1Cl (configuration not stated) | 5.01 nM |
| O=C(c1cccc(C(F)(F)F)c1Cl)N1CCn2c(Br)nnc2C1 | 7.94 nM |
| Cc1ccc(N2CCCC2)cc1N1CCN(C(=O)c2cccc(C(F)(F)F)c2Cl)CC1=O | 79.4 nM |
| Cc1ccc(Br)cc1N1CCN(C(=O)c2cccc(C(F)(F)F)c2Cl)CC1=O | 39.8 nM |
| Cc1ccc(-c2ccc(C)c(N3CCN(C(=O)c4cccc(C(F)(F)F)c4Cl)CC3=O)c2)cn1 | 39.8 nM |
| Cc1c(N2CCCC2)cccc1N1CCN(C(=O)c2cccc(C(F)(F)F)c2Cl)CC1=O | 10 nM |

| Structure (SMILES) | IC50 |
| --- | --- |
| O=C(c1cccc(Cl)c1Cl)N1CCN(c2cc(N3CCOCC3)ccc2Cl)C(=O)C1 | 5.01 nM |
| O=C(c1c(Cl)cc(Cl)cc1Cl)N1CCN(c2cc(N3CCOCC3)ccc2Cl)C(=O)C1 | 10 nM |
| O=C(c1cccc(C(F)(F)F)c1Cl)N1CCN(c2cc(N3CCOCC3)ccc2Cl)C(=O)C1 | 7.94 nM |
| O=C(c1cccc(C(F)(F)F)c1Cl)N1CCn2c(nnc2-c2ccccc2)C1 | 3.16 nM |
| O=C(c1cccc(C(F)(F)F)c1Cl)N1CCn2c(nnc2N2CCCC2)C1 | 15.8 nM |
| O=C(c1ccccc1Cl)N1CCn2c(-c3ccccc3)cnc2C1 | 50.1 nM |
| O=C(c1cccc(Cl)c1Cl)N1CCn2c(-c3ccccc3)cnc2C1 | 5.01 nM |
| O=C(c1ccc(F)cc1Cl)N1CCn2c(-c3ccccc3)cnc2C1 | 15.8 nM |
| O=C(c1c(Cl)cc(Cl)cc1Cl)N1CCn2c(-c3ccccc3)cnc2C1 | 12.6 nM |
| O=C(c1cccc(C(F)(F)F)c1Cl)N1CCn2c(nnc2N2CCOCC2)C1 | 251 nM |
| CN(C)c1nnc2n1CCN(C(=O)c1cccc(C(F)(F)F)c1Cl)C2 | 20 nM |
| O=C(c1cccc(C(F)(F)F)c1Cl)N1CCN(c2cccc(N3CCOCC3)c2Cl)C(=O)C1 | 12.6 nM |
| O=C(c1cccc(C(F)(F)F)c1Cl)N1CCn2c(-c3ccc(F)cc3)cnc2C1 | 12.6 nM |
| Cc1c(N2CCOCC2)cccc1N1CCN(C(=O)c2cccc(Cl)c2Cl)CC1=O | 15.8 nM |
| Cc1c(N2CCOCC2)cccc1N1CCN(C(=O)c2cccc(C(F)(F)F)c2Cl)CC1=O | 12.6 nM |
| Cc1c(N2CCOCC2)cccc1N1CCN(C(=O)c2c(Cl)cc(Cl)cc2Cl)CC1=O | 39.8 nM |
| Cc1nnc2n1CCN(C(=O)c1cccc(C(F)(F)F)c1Cl)C2 | 31.6 nM |
| Cc1ccc(N2CCC(O)C2)cc1N1CCN(C(=O)c2cccc(C(F)(F)F)c2Cl)CC1=O (configuration not stated) | 10 nM |
| Cc1ccc(-c2cccc(N3CCN(C(=O)c4cccc(C(F)(F)F)c4Cl)CC3=O)c2C)cn1 | 50.1 nM |
| CCc1nnc2n1CCN(C(=O)c1cccc(C(F)(F)F)c1Cl)C2 | 31.6 nM |
| O=C(c1cccc(C(F)(F)F)c1Cl)N1CCn2c(Br)cnc2C1 | 10 nM |
| O=C(c1cccc(C(F)(F)F)c1Cl)N1CCn2c(nnc2-c2cccnc2)C1 | 6.31 nM |
| Cc1ccccc1-c1cnc2n1CCN(C(=O)c1cccc(C(F)(F)F)c1Cl)C2 | 100 nM |
| COc1nnc2n1CCN(C(=O)c1cccc(C(F)(F)F)c1Cl)C2 | 79.4 nM |
| CNc1nnc2n1CCN(C(=O)c1cccc(C(F)(F)F)c1Cl)C2 | 251 nM |

| Structure (SMILES) | IC50 |
| --- | --- |
| O=C(c1cccc(C(F)(F)F)c1Cl)N1CCn2c(nnc2N2CCC2)C1 | 25.1 nM |
| O=C(c1cccc(C(F)(F)F)c1Cl)N1CCn2c(nnc2N2CCCCC2)C1 | 100 nM |
| CC(c1ccccc1)N1CCN(C(=O)c2cccc(C(F)(F)F)c2Cl)CC1=O (configuration not stated) | 31.6 nM |
| O=C(c1cccc(C(F)(F)F)c1Cl)N1CCn2c(nc(I)c2I)C1 | 6.31 nM |
| O=C(c1cccc(C(F)(F)F)c1Cl)N1CCn2c(nnc2-c2ccncc2)C1 | 25.1 nM |
| O=C(c1cccc(C(F)(F)F)c1Cl)N1CCn2c(I)cnc2C1 | 3.98 nM |
| Cc1cnc2n1CCN(C(=O)c1cccc(C(F)(F)F)c1Cl)C2 | 50.1 nM |
| O=C(c1cccc(C(F)(F)F)c1Cl)N1CCn2c(nc(C(F)(F)F)c2Br)C1 | 5.01 nM |
| O=C(c1cccc(Cl)c1Cl)N1CCn2c(Br)nnc2C1 | 50.1 nM |
| O=C(c1cccc(C(F)(F)F)c1Cl)N1CCn2c(nc(C(F)(F)F)c2-c2ccccc2)C1 | 50.1 nM |
| O=C(c1ccc(Cl)cc1Cl)N1CCn2c(Br)nnc2C1 | 200 nM |
| O=C(c1c(Cl)cc(Cl)cc1Cl)N1CCn2c(Br)nnc2C1 | 398 nM |
| O=C(c1cccc(C(F)(F)F)c1F)N1CCn2c(Br)nnc2C1 | 79.4 nM |
| Cc1cn2c(n1)CN(C(=O)c1cccc(C(F)(F)F)c1Cl)CC2 | 126 nM |
| Cc1cn2c(n1)CN(C(=O)c1cccc(Cl)c1Cl)CC2 | 316 nM |
| O=C(c1cccc(C(F)(F)F)c1Cl)N1CCn2c(-c3cccc(C(F)(F)F)c3Cl)cnc2C1 | 631 nM |
| O=C(c1cccc(C(F)(F)F)c1Cl)N1CCn2c(-c3ccc(Cl)cc3)cnc2C1 | 251 nM |
| CC(C)(C)c1cn2c(n1)CN(C(=O)c1cccc(C(F)(F)F)c1Cl)CC2 | 631 nM |
| O=C(c1cccc(C(F)(F)F)c1Cl)N1CCn2cc(-c3ccccc3)nc2C1 | 316 nM |
| O=C(c1cccc(Cl)c1Cl)N1CCn2cc(-c3ccccc3)nc2C1 | 631 nM |
| O=C(c1cccc(C(F)(F)F)c1Cl)N1CCn2c(nnc2-c2ccncn2)C1 | 12.6 nM |
| O=C(c1cccc(C(F)(F)F)c1Cl)N1CCn2c(nnc2-c2ccc(F)cc2F)C1 | 15.8 nM |
